We go through 24 compounds from US8309546B2, “Morpholinopurine derivatives” (Daiichi Sankyo Company, Limited, priority 2008, dated 2012).

In assay [1] the test system is human colon cancer cell strain HT29. Briefly: Cell growth inhibition test (MTT), HT29. The assay is classed as cell-based. The following applies: HT-29, 72 h, HT29, 3 days culture, read-out: concentration exhibiting anti-cell effect (GI50). Put shortly:
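AN3CA, IGROV1 and HT29 seeded at 5000, 1000 and 5000 cells/well; compound added next day, 3 days at 37° C, 5% CO2. MTT 4 h, formazan in DMSO read at 540 nm. GI50 is the concentration giving 50% growth rate (T/C %, corrected for day-of-addition absorbance), interpolated between two bracketing concentrations.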

Assay [2] relates to Akt (threonine 308) phosphorylation in AN3CA tumor. Kind of assay: Akt phosphorylation inhibition assay in xenograft. The format is in vivo, female nude mouse. The following applies: Mus musculus, AN3-CA, oral, 6 hr after dosing. The method, then: A tumor section was prepared from a human endometrial cancer cell strain AN3CA tumor mass formed in a female nude mouse as subcutaneously transplanted tumor and a xenograft model was prepared by subcutaneously transplanting the tumor to a female nude mouse. The test compound at a predetermined concentration was orally administered. After a predetermined time, the anesthetized mouse was exsanguinated to death, and a tumor mass was isolated. The tumor mass was crushed using a lysis buffer containing inhibitors of proteases and dephosphorylating enzymes (Cell Signaling Technology, Inc.) and the supernatant was separated by centrifugation to obtain a tumor extract. The protein content of the tumor extract was measured using DC Protein Assay Kit (Bio-Rad Laboratories, Inc.) and phosphorylation conditions of Akt (threonine 308) and S6 (serine 235 and 236) were analyzed by a usual technique of western blotting using tumor extracts containing the same amount of protein. The primary antibody and the secondary antibody used for detecting each molecule were rabbit anti-phospho-Akt(T308) antibody and HRP-labeled goat anti-rabbit IgG antibody or mouse anti-phospho-S6(S235/236) antibody and HRP-labeled sheep anti-mouse IgG antibody.
The signal intensity detected using an image analyzer Typhoon 9400 (GE Healthcare) was quantified, and the phosphorylation inhibition rate (%) was calculated by the following formula. Phosphorylation inhibitory activity (%) of Akt and S6 after treatment with test compound=100−100×(B/A) A: Signal intensity derived from phosphorylated protein in tumor mass isolated from mouse untreated with test compound B: Signal intensity derived from phosphorylated protein in tumor mass isolated from mouse treated with test compound

For the compound `CC(C)Cn1c(N2CCN(S(C)(=O)=O)CC2)nc2c(N3CCOCC3)nc(-c3cnc(N)nc3)nc21` [Example 1, 5-{9-Isobutyl-8-[4-(methylsulfonyl)piperazin-1-yl]-6-morpholin-4-yl-9H-purin-2-yl}pyrimidin-2-amine], the GI50 in assay [1] was not above 5 µM.

Turning to `CC(=O)N1CCN(c2nc3c(N4CCOCC4)nc(-c4cnc(N)nc4)nc3n2CC(C)C)CC1` [Example 2, 5-[8-(4-Acetylpiperazin-1-yl)-9-isobutyl-6-morpholin-4-yl-9H-purin-2-yl]pyrimidin-2-amine], the GI50 in assay [1] was not above 5 µM.

By inhibition is commonly meant the share of the control response that was lost under treatment. Read a high inhibition as a strong effect. For the compound `CS(=O)(=O)N1CCN(c2nc3c(N4CCOCC4)nc(-c4cnc(N)nc4)nc3n2CC2CC2)CC1` [Example 3, 5-{9-(Cyclopropylmethyl)-8-[4-(methylsulfonyl)piperazin-1-yl]-6-morpholin-4-yl-9H-purin-2-yl}pyrimidin-2-amine], the inhibition at 10 mg/kg in assay [2] was more than 60%. In addition, the GI50 in assay [1] was not above 5 µM.

As to `Cc1nc(N)ncc1-c1nc(N2CCOCC2)c2nc(N3CCN(S(C)(=O)=O)CC3)n(CC3CC3)c2n1` [Example 6, 5-{9-(Cyclopropylmethyl)-8-[4-(methylsulfonyl)piperazin-1-yl]-6-morpholin-4-yl-9H-purin-2-yl}-4-methylpyrimidin-2-amine], in assay [2], the inhibition at 10 mg/kg was more than 60%. Moreover, the GI50 in assay [1] is not above 5 µM.

Compound `CS(=O)(=O)N1CCN(c2nc3c(N4CCOCC4)nc(-c4cnc(N)nc4)nc3n2CC(F)(F)F)CC1` [Example 8, 5-{8-[4-(Methylsulfonyl)piperazin-1-yl]-6-morpholin-4-yl-9-(2,2,2-trifluoroethyl)-9H-purin-2-yl}pyrimidin-2-amine] gave an inhibition at 10 mg/kg in assay [2] of more than 60%. In assay [1], the GI50 was not above 5 µM.

On to `CC(=O)N1CCN(c2nc3c(N4CCOCC4)nc(-c4cnc(N)nc4)nc3n2CC2CC2)CC1` [Example 10, 5-[8-(4-Acetylpiperazin-1-yl)-9-(cyclopropylmethyl)-6-morpholin-4-yl-9H-purin-2-yl]pyrimidin-2-amine], for which the GI50 in assay [1] was not above 5 µM.

For `CNc1ncc(-c2nc(N3CCOCC3)c3nc(N4CCN(S(C)(=O)=O)CC4)n(CC(F)(F)F)c3n2)cn1` [Example 11, N-Methyl-5-{8-[4-(methylsulfonyl)piperazin-1-yl]-6-morpholin-4-yl-9-(2,2,2-trifluoroethyl)-9H-purin-2-yl}pyrimidin-2-amine], the GI50 in assay [1] is not above 5 µM.

Turning to `C[C@@H]1CN(c2nc3c(N4CCOCC4)nc(-c4cnc(N)nc4)nc3n2CC(F)(F)F)C[C@H](C)N1` [Example 14, 5-[8-(cis-3,5-Dimethylpiperazin-1-yl)-6-morpholin-4-yl-9-(2,2,2-trifluoroethyl)-9H-purin-2-yl]pyrimidin-2-amine], the GI50 in assay [1] is not above 5 µM.

Regarding `CC(C)Cn1c(N2CCN(S(C)(=O)=O)[C@@H](C)C2)nc2c(N3CCOCC3)nc(-c3cnc(N)nc3)nc21` [Example 53, 5-{9-Isobutyl-8-[(3S)-3-methyl-4-(methylsulfonyl)piperazin-1-yl]-6-morpholin-4-yl-9H-purin-2-yl}pyrimidin-2-amine], the inhibition at 10 mg/kg in assay [2] fell in the range of 30 to 60%. Moreover, the GI50 in assay [1] is not above 5 µM.

`CC(C)Cn1c(N2CCN(S(C)(=O)=O)[C@H](C)C2)nc2c(N3CCOCC3)nc(-c3cnc(N)nc3)nc21` [Example 54, 5-{9-Isobutyl-8-[(3R)-3-methyl-4-(methylsulfonyl)piperazin-1-yl]-6-morpholin-4-yl-9H-purin-2-yl}pyrimidin-2-amine]: the inhibition at 10 mg/kg in assay [2] lay in the range of 30 to 60%. Moreover, in assay [1], the GI50 is not above 5 µM.

For `CC(C)Cn1c(N2CCN(C(=O)CN(C)C)CC2)nc2c(N3CCOCC3)nc(-c3cnc(N)nc3)nc21` [Example 55, 5-(8-{4-[(Dimethylamino)acetyl]piperazin-1-yl}-9-isobutyl-6-morpholin-4-yl-9H-purin-2-yl)pyrimidin-2-amine], in assay [1], the GI50 was not above 5 µM.

In the case of `CS(=O)(=O)C1CCN(c2nc3c(N4CCOCC4)nc(-c4cnc(N)nc4)nc3n2CC(F)(F)F)CC1` [Example 57, 5-{8-[4-(Methylsulfonyl)piperidin-1-yl]-6-morpholin-4-yl-9-(2,2,2-trifluoroethyl)-9H-purin-2-yl}pyrimidin-2-amine], the inhibition at 10 mg/kg in assay [2] lay in the range of 30 to 60%. For the same compound, the GI50 in assay [1] was not above 5 µM.

`CC(=O)N1CCN(c2nc3c(N4CCOCC4)nc(-c4cnc(N)nc4)nc3n2CC(F)(F)F)C[C@H]1C` [Example 60, 5-{8-[(3R)-4-Acetyl-3-methylpiperazin-1-yl]-6-morpholin-4-yl-9-(2,2,2-trifluoroethyl)-9H-purin-2-yl}pyrimidin-2-amine] showed an inhibition at 10 mg/kg in assay [2] of more than 60%. The GI50 in assay [1] is not above 5 µM.

The compound `C[C@@H]1CN(c2nc3c(N4CCOCC4)nc(-c4cnc(N)nc4)nc3n2CC(F)(F)F)CCN1S(C)(=O)=O` [Example 61, 5-{8-[(3R)-3-Methyl-4-(methylsulfonyl)piperazin-1-yl]-6-morpholin-4-yl-9-(2,2,2-trifluoroethyl)-9H-purin-2-yl}pyrimidin-2-amine] displayed an inhibition at 10 mg/kg in assay [2] of more than 60%. Besides, the GI50 in assay [1] is not above 5 µM.

On to `C[C@H]1CN(c2nc3c(N4CCOCC4)nc(-c4cnc(N)nc4)nc3n2CC(F)(F)F)CCN1S(C)(=O)=O` [Example 62, 5-{8-[(3S)-3-Methyl-4-(methylsulfonyl)piperazin-1-yl]-6-morpholin-4-yl-9-(2,2,2-trifluoroethyl)-9H-purin-2-yl}pyrimidin-2-amine], for which the inhibition at 10 mg/kg in assay [2] lay in the range of 30 to 60%. In addition, the GI50 in assay [1] is not above 5 µM.

The compound `CC(=O)N1CCN(c2nc3c(N4CCOCC4)nc(-c4cnc(N)nc4)nc3n2CC(F)(F)F)C[C@@H]1C` [Example 63, 5-{8-[(3S)-4-Acetyl-3-methylpiperazin-1-yl]-6-morpholin-4-yl-9-(2,2,2-trifluoroethyl)-9H-purin-2-yl}pyrimidin-2-amine] displayed an inhibition at 10 mg/kg in assay [2] of more than 60%. In addition, the GI50 in assay [1] is not above 5 µM.

As to `CS(=O)(=O)N1CCN(c2nc3c(N4CCOCC4)nc(-c4cnc(N)nc4)nc3n2CC(F)F)CC1` [Example 64, 5-{9-(2,2-Difluoro-ethyl)-8-[4-(methylsulfonyl)piperazin-1-yl]-6-morpholin-4-yl-9H-purin-2-yl}pyrimidin-2-amine], the inhibition at 10 mg/kg in assay [2] lay in the range of 30 to 60%. For the same compound, the GI50 in assay [1] is not above 5 µM.

With `CC(=O)C(=O)N1CCN(c2nc3c(N4CCOCC4)nc(-c4cnc(N)nc4)nc3n2CC(F)(F)F)CC1` [Example 65, 1-{4-[2-(2-Aminopyrimidin-5-yl)-6-morpholin-4-yl-9-(2,2,2-trifluoroethyl)-9H-purin-8-yl]piperazin-1-yl}-1-oxoacetone], the inhibition at 10 mg/kg in assay [2] lay in the range of 30 to 60%. Besides, the GI50 in assay [1] was not above 5 µM.

In turn, `CN(C)C(=O)C(=O)N1CCN(c2nc3c(N4CCOCC4)nc(-c4cnc(N)nc4)nc3n2CC(F)(F)F)CC1` [Example 66, 2-{4-[2-(2-Aminopyrimidin-5-yl)-6-morpholin-4-yl-9-(2,2,2-trifluoroethyl)-9H-purin-8-yl]piperazin-1-yl}-N,N-dimethyl-2-oxoacetamide] came in with an inhibition at 10 mg/kg in assay [2] of 30 to 60%. Moreover, the GI50 in assay [1] is not above 5 µM.

As to `Nc1ncc(-c2nc(N3CCOCC3)c3nc(N4CCN(C(=O)CO)CC4)n(CC(F)(F)F)c3n2)cn1` [Example 67, 2-{4-[2-(2-Aminopyrimidin-5-yl)-6-morpholin-4-yl-9-(2,2,2-trifluoroethyl)-9H-purin-8-yl]piperazin-1-yl}-2-oxoethanol], the inhibition at 10 mg/kg in assay [2] lay within 30 to 60%. Also, in assay [1], the GI50 is not above 5 µM.

As for `C[C@H](O)C(=O)N1CCN(c2nc3c(N4CCOCC4)nc(-c4cnc(N)nc4)nc3n2CC(F)(F)F)CC1` [Example 68, (2S)-1-{4-[2-(2-Aminopyrimidin-5-yl)-6-morpholin-4-yl-9-(2,2,2-trifluoroethyl)-9H-purin-8-yl]piperazin-1-yl}-1-oxopropan-2-ol], the inhibition at 10 mg/kg in assay [2] is more than 60%. In assay [1], the GI50 was not above 5 µM.

Compound `C[C@H](O)CC(=O)N1CCN(c2nc3c(N4CCOCC4)nc(-c4cnc(N)nc4)nc3n2CC(F)(F)F)CC1` [Example 69, (2S)-4-{4-[2-(2-Aminopyrimidin-5-yl)-6-morpholin-4-yl-9-(2,2,2-trifluoroethyl)-9H-purin-8-yl]piperazin-1-yl}-4-oxobutan-2-ol] came in with an inhibition at 10 mg/kg in assay [2] of more than 60%. Moreover, in assay [1], the GI50 was not above 5 µM.

`C[C@H]1COCCN1c1nc(-c2cnc(N)nc2)nc2c1nc(N1CCN(S(C)(=O)=O)CC1)n2CC(F)(F)F` [Example 127, 5-{6-[(3S)-3-Methylmorpholin-4-yl]-8-[4-(methylsulfonyl)piperazin-1-yl]-9-(2,2,2-trifluoroethyl)-9H-purin-2-yl}pyrimidin-2-amine]: the GI50 in assay [1] is not above 5 µM.

As to `CC(=O)N1CCN(c2nc3c(N4CCOC[C@@H]4C)nc(-c4cnc(N)nc4)nc3n2CC(C)C)CC1` [Example 129, 5-{8-(4-Acetylpiperazin-1-yl)-9-isobutyl-6-[(3S)-3-methylmorpholin-4-yl]-9H-purin-2-yl}pyrimidin-2-amine], the GI50 in assay [1] is not above 5 µM.
